Measurements published in patent US20160227776A1, “COMPOSITION CONTAINING ATTRACTANT OF NOXIOUS ARTHROPOD COMPRISING PLANT-DERIVED COMPONENT AND ANALOGUE OF SAME” (KYOYU AGRI CO., LTD., priority 2013, published 2016).

Tests used:
Format in all cases: in vivo
[1] = test system: Frankliniella occidentalis; assay: Test Example 1: water trap attraction test, single compounds; design: key: (captured treated − captured untreated)×100/total released per cage; conditions: single compound, 30 adult females per cage, 24 hours
Protocol: (§1) Hexane solutions were prepared respectively containing single compounds selected from among p-anisaldehyde, benzaldehyde, ethyl nicotinate, geraniol, linalool, nerol, citronellol, methyl anthranilate, methyl benzoate, o-aminoacetophenone, o-anisidine, methyl m-aminobenzoate, methyl o-toluate and α-hexylcinnamaldehyde. Each single compound was prepared at five concentration levels consisting of 0.01 μg, 0.1 μg, 1 μg, 10 μg and 100 μg. After impregnating pieces of filter paper with these solutions, the filter paper was affixed on a plastic vial cap using adhesive tape and set up in a water trap containing a surfactant. After releasing 30 adult female Frankliniella occidentalis into an acrylic cage, the water trap containing the above-mentioned attractants was set up in the cage. 24 hours later, the number of Frankliniella occidentalis captured in the water trap was counted and the attraction rate was calculated using Equation 1.
(§2) Attraction rate=(No. of captured individuals in treatment−no. of captured individuals in untreatment)*100/(total no. released per cage) (1)

[2] = test system: Frankliniella occidentalis; assay: Test Example 2: water trap attraction test, mixtures of two compounds; design: key: % of released insects: (treated catch − untreated catch)×100/total released; conditions: single compound for comparison, 24 hours
Protocol: as §1, with “Mixed hexane” for “Hexane”, “two types of” for “single”, “Each single compound was prepared at five concentration levels consisting of 0.01 μg, 0.1 μg, 1 μg, 10 μg and 100 μg.” left out, “the mixed solution of the two types of compounds,” for “these solutions,”, “above-mentioned mixed” for “above-mentioned”, “1. In addition, hexane solutions were also prepared containing each of the single compounds at their respective prescribed concentrations for the sake of comparison, and those solutions were tested in the same manner.” for “1.”
as §2
(§3) In general, a synergistic attracting effect expected when mixing two given types of attractive compounds and using for treatment is determined from Colby's equation indicated with the following Equation 2: […]
(§4) X: attraction rate when treated with attractive compound A;
(§5) Y: attraction rate when treated with attractive compound B; and
(§6) E: attraction rate expected when treating by mixing attractive compound A and attractive compound B (expected attraction rate value).

[3] = test system: Frankliniella occidentalis; assay: Test Example 3: water trap attraction test, mixtures of three compounds; design: scale not given here; conditions: single compound for comparison, 24 hours
Protocol: Mixed hexane solutions were prepared containing three types of compounds selected from among p-anisaldehyde, benzaldehyde, ethyl nicotinate, geraniol, linalool, nerol, citronellol, methyl anthranilate, methyl benzoate, o-aminoacetophenone, o-anisidine, methyl m-aminobenzoate, methyl o-toluate and α-hexylcinnamaldehyde. […] After impregnating pieces of filter paper with the mixed solution of the three types of compounds, the filter paper was affixed on a plastic vial cap using adhesive tape and set up in a pan trap containing a surfactant. After releasing 30 adult female Frankliniella occidentalis into an acrylic cage, the water trap containing the above-mentioned mixed attractants was set up in the cage. 24 hours later, the number of Frankliniella occidentalis captured in the water trap was counted and the attraction rate was calculated using Equation 1. In addition, hexane solutions were also prepared containing each of the single agents at their respective prescribed concentrations for the sake of comparison, and those solutions were tested in the same manner.
In general, a synergistic attracting effect expected when mixing three given types of attractive compounds and using for treatment is determined from Colby's equation indicated with the following Equation 3: […]
as §4
(§7) Y: attraction rate when treated with attractive compound B;
Z: attraction rate when treated with attractive compound C; and
E: attraction rate expected when treating by mixing attractive compound A, attractive compound B and attractive compound C (expected attraction rate value).

Drosophila melanogaster = assay: Test Example 5: water trap attraction test, mixtures of two compounds; design: key: % = (captured treated − captured untreated)×100/total released; conditions: weight of each compound 100 μg; 20 adults per cage; 24 hours
Protocol: Mixed hexane solutions were prepared respectively containing two types of compounds selected from among p-anisaldehyde, benzaldehyde, ethyl nicotinate, geraniol, linalool, nerol, citronellol, methyl anthranilate, methyl benzoate, o-aminoacetophenone, o-anisidine, methyl m-aminobenzoate, methyl o-toluate and α-hexylcinnamaldehyde. The weight of each compound was adjusted to 100 μg. After impregnating pieces of filter paper with the mixed solution of the two types of compounds, the filter paper was affixed on a plastic vial cap using adhesive tape and set up in a water trap containing a surfactant. After releasing 20 adult Drosophila melanogaster into an acrylic cage, the water trap containing the above-mentioned mixed attractants was set up in the cage. 24 hours later, the number of D. melanogaster captured in the water trap was counted and the attraction rate was calculated using Equation 1. In addition, hexane solutions were also prepared containing each of the single compounds at their respective prescribed concentrations for the sake of comparison, and those solutions were tested in the same manner.
as §2, §3, §4, §5, §6

Thrips tabaci = assay: Test Example 6: yellow sticky trap attraction test, mixtures of two compounds; design: key: % = (captured treated − captured untreated)×100/total released per cup; conditions: weight of each compound 1 μg; 10 adults per cup; 24 hours
Protocol: Mixed hexane solutions were prepared respectively containing two types of compounds selected from among p-anisaldehyde, benzaldehyde, ethyl nicotinate, geraniol, linalool, nerol, citronellol, methyl anthranilate, methyl benzoate, o-aminoacetophenone, o-anisidine, methyl m-aminobenzoate, methyl o-toluate and α-hexylcinnamaldehyde. The weight of each compound was adjusted to 1 μg. After impregnating pieces of filter paper (3 mm^2) with the mixed solution of the two types of compounds, the filter paper was affixed on a yellow sticky trap (1 cm^2). After releasing 10 adult Thrips tabaci into a plastic cup (150 ml), the yellow sticky trap containing the above-mentioned mixed attractants was set up at the side of the plastic cup. 24 hours later, the number of T. tabaci captured in the yellow sticky trap was counted and the attraction rate was calculated using Equation 1. In addition, hexane solutions were also prepared containing each of the single compounds at their respective prescribed concentrations for the sake of comparison, and those solutions were tested in the same manner.
Attraction rate=(No. of captured individuals in treatment−no. of captured individuals in untreatment)*100/(total no. released per cup) (1)
as §3, §4, §7, §6

Tetranychus urticae = assay: Test Example 4: plastic tube filter paper contact test, mixtures of two compounds; design: key: (treated − untreated contacts) ×100 / repetitions, %; conditions: weight of each compound 1 μg; contact with filter paper within 10 minutes
Protocol: Mixed hexane solutions were prepared respectively containing two types of compounds selected from among p-anisaldehyde, benzaldehyde, ethyl nicotinate, geraniol, linalool, nerol, citronellol, methyl anthranilate, methyl benzoate, o-aminoacetophenone, o-anisidine, methyl m-aminobenzoate, methyl o-toluate and α-hexylcinnamaldehyde. The weight of each compound was adjusted to 1 μg. After impregnating pieces of filter paper (3 mm^2) with the mixed solution of the two types of compounds, the filter paper was set up at the head of a plastic tube (length of 9 cm, 5 mm^2 in diameters). An adult Tetranychus urticae was released into the end of plastic tube. Among 10 minutes, the number of T. urticae contacted the filter paper was counted and the attraction rate was calculated using Equation 1. In addition, hexane solutions were also prepared containing each of the single compounds at their respective prescribed concentrations for the sake of comparison, and those solutions were tested in the same manner.
Attraction rate=(No. of contacted individuals in treatment−no. of contacted individuals in untreatment)*100/(repetition) (1)
as §3, §4, §7, §6

COc1ccc(C=O)cc1 [p-anisaldehyde]
Attraction Rate ([1]; Amount 0.01 μg): 17
Attraction Rate ([1]; Amount 0.1 μg): 23
Attraction Rate ([1]; Amount 1 μg): 23
Attraction Rate ([1]; Amount 10 μg): 30
Attraction Rate ([1]; Amount 100 μg): 36
Attraction Rate ([2]; 100 μg): 36
Attraction Rate ([3]; 100 μg): 36
Attraction Rate (Drosophila melanogaster): 3
Attraction Rate (Thrips tabaci): 10

O=Cc1ccccc1 [Benzaldehyde, benzaldehyde]
Attraction Rate ([1]; Amount 0.01 μg): 23
Attraction Rate ([1]; Amount 0.1 μg): 33
Attraction Rate ([1]; Amount 1 μg): 36
Attraction Rate ([1]; Amount 10 μg): 30
Attraction Rate ([1]; Amount 100 μg): 27
Attraction Rate ([2]; 1 μg): 36
Attraction Rate ([3]; 1 μg): 36
Attraction Rate (Tetranychus urticae): 32
Attraction Rate (Drosophila melanogaster): 3

COC(=O)c1ccccc1N [Methyl anthranilate, methyl anthranilate]
Attraction Rate ([1]; Amount 0.01 μg): 10
Attraction Rate ([1]; Amount 0.1 μg): 13
Attraction Rate ([1]; Amount 1 μg): 13
Attraction Rate ([1]; Amount 10 μg): 17
Attraction Rate ([1]; Amount 100 μg): 20
Attraction Rate ([2]; 100 μg): 20
Attraction Rate ([3]; 100 μg): 20
Attraction Rate (Drosophila melanogaster): 8
Attraction Rate (Thrips tabaci): 10

CC(C)=CCCC(C)CCO (centres unmarked) [Citronellol, citronellol]
Attraction Rate ([1]; Amount 0.01 μg): 7
Attraction Rate ([1]; Amount 0.1 μg): 20
Attraction Rate ([1]; Amount 1 μg): 20
Attraction Rate ([1]; Amount 10 μg): 20
Attraction Rate ([1]; Amount 100 μg): 23
Attraction Rate ([2]; 100 μg): 23
Attraction Rate ([3]; 100 μg): 23
Attraction Rate (Drosophila melanogaster): 3

CC(C)=CCC/C(C)=C\CO [Nerol, nerol]
Attraction Rate ([1]; Amount 0.01 μg): 10
Attraction Rate ([1]; Amount 0.1 μg): 33
Attraction Rate ([1]; Amount 1 μg): 33
Attraction Rate ([1]; Amount 10 μg): 30
Attraction Rate ([1]; Amount 100 μg): 27
Attraction Rate ([2]; 1 μg): 33
Attraction Rate ([3]; 1 μg): 33
Attraction Rate (Tetranychus urticae): 5
Attraction Rate (Drosophila melanogaster): 3

CCCCCCC(C=O)=Cc1ccccc1 [α-hexylcinnamaldehyde]
Attraction Rate ([1]; Amount 0.01 μg): 13
Attraction Rate ([1]; Amount 0.1 μg): 27
Attraction Rate ([1]; Amount 1 μg): 33
Attraction Rate ([1]; Amount 10 μg): 30
Attraction Rate ([1]; Amount 100 μg): 30
Attraction Rate ([2]; 1 μg): 33
Attraction Rate ([3]; 1 μg): 33
Attraction Rate (Drosophila melanogaster): 8
Attraction Rate (Thrips tabaci): 7

COC(=O)c1ccccc1 [Methyl benzoate, methyl benzoate]
Attraction Rate ([1]; Amount 0.01 μg): 7
Attraction Rate ([1]; Amount 0.1 μg): 23
Attraction Rate ([1]; Amount 1 μg): 27
Attraction Rate ([1]; Amount 10 μg): 33
Attraction Rate ([1]; Amount 100 μg): 36
Attraction Rate ([2]; 100 μg): 36
Attraction Rate ([3]; 100 μg): 46
Attraction Rate (Tetranychus urticae): 25
Attraction Rate (Drosophila melanogaster): 8

CC(=O)c1ccccc1N [o-aminoacetophenone]
Attraction Rate ([1]; Amount 0.01 μg): 3
Attraction Rate ([1]; Amount 0.1 μg): 17
Attraction Rate ([1]; Amount 1 μg): 23
Attraction Rate ([1]; Amount 10 μg): 30
Attraction Rate ([1]; Amount 100 μg): 36
Attraction Rate ([2]; 100 μg): 36
Attraction Rate ([3]; 100 μg): 36
Attraction Rate (Tetranychus urticae): 38
Attraction Rate (Drosophila melanogaster): 13

COC(=O)c1ccccc1C [Methyl o-toluate, methyl o-toluate]
Attraction Rate ([1]; Amount 0.01 μg): 3
Attraction Rate ([1]; Amount 0.1 μg): 13
Attraction Rate ([1]; Amount 1 μg): 17
Attraction Rate ([1]; Amount 10 μg): 20
Attraction Rate ([1]; Amount 100 μg): 23
Attraction Rate ([2]; 100 μg): 23
Attraction Rate ([3]; 100 μg): 23
Attraction Rate (Tetranychus urticae): 15
Attraction Rate (Drosophila melanogaster): 3

COC(=O)c1cccc(N)c1 [Methyl m-aminobenzoate, methyl m-aminobenzoate]
Attraction Rate ([1]; Amount 0.01 μg): 3
Attraction Rate ([1]; Amount 0.1 μg): 10
Attraction Rate ([1]; Amount 1 μg): 27
Attraction Rate ([1]; Amount 10 μg): 33
Attraction Rate ([1]; Amount 100 μg): 40
Attraction Rate ([2]; 100 μg): 40
Attraction Rate ([3]; 100 μg): 40
Attraction Rate (Drosophila melanogaster): 8
Attraction Rate (Thrips tabaci): 0

CC(C)=CCC/C(C)=C/CO [Geraniol, geraniol]
Attraction Rate ([1]; Amount 0.01 μg): 10
Attraction Rate ([1]; Amount 0.1 μg): 17
Attraction Rate ([1]; Amount 1 μg): 30
Attraction Rate ([1]; Amount 10 μg): 33
Attraction Rate ([1]; Amount 100 μg): 27
Attraction Rate ([2]; 10 μg): 33
Attraction Rate ([3]; 10 μg): 33
Attraction Rate (Drosophila melanogaster): 23
Attraction Rate (Thrips tabaci): 0
